Assay results from US11091482B2, “Isoxazolyl-carbonyloxy azabicyclo[3.2.1]octanyl compounds as FXR activators” (ARDELYX, INC., priority 2016, dated 2021).
Like-named read-outs stand apart in the source and are kept apart here.

Experiments:
[1] = system: fibroblast growth factor 19 (FGF19) secretion in human ileum; experiment: Human ileum APECCS (FGF19 secretion); format: cell-based; settings: for EC50: Fibroblast; for Activity, %: relative to GW4064
[2] = target: human Farnesoid X receptor ligand-binding domain/Gal4 DNA binding domain chimera (Homo sapiens (Human), UniProt Q96RI1); experiment: Cell-based FXR beta-lactamase reporter assay (FXR-UAS-bla HEK 293T cells); settings: for Emax: HEK-293T, read-out: % Efficacy; for EC50 / FXR pEC50 / % Efficacy: cellular FXR beta-lactamase reporter assay; for EC50 / FXR pEC50: -log EC50; for EC50: read-out: FXR pEC50 (converted); for % Efficacy: extent of activation relative to GW4064
Chain of human Farnesoid X receptor ligand-binding domain/Gal4 DNA binding domain chimera (Q96RI1 262-486, change not shown): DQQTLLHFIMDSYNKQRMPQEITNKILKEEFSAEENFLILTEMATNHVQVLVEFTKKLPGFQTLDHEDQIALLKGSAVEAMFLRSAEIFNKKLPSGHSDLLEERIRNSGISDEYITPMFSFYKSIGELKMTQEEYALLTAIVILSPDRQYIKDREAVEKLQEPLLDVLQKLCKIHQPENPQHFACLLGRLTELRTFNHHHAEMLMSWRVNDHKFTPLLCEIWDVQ
Method in brief: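 Stable FXR-UAS-bla HEK 293T cells in phenol red-free DMEM with 2% charcoal-stripped FBS were exposed to 3-fold serial dilutions of compound. Beta-lactamase reporter activity was read by CCF4 FRET loss, exciting at 409 nm with blue emission at 447 nm. The FRET change versus concentration was fit to a 3-parameter logistic equation.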

[3] = target: ligand binding domain of human FXR (Homo sapiens (Human), UniProt Q96RI1); experiment: FXR ligand binding assay (LanthaScreen FRET); settings: for EC50 / FXR pEC50: -log EC50; for EC50: read-out: FXR pEC50 (converted); for Emax: read-out: % Efficacy;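 as to all read-outs here: TR-FRET coactivator recruitment: ligand-induced binding of fluorescein-labelled SRC2-2 peptide to GST-tagged FXR LBD detected via Tb anti-GST antibody, serial compound dilutions, 3-parameter logistic fit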
Chain of ligand binding domain of human FXR (Q96RI1 262-486): as the sequence (Q96RI1 262-486, change not shown) above
Description: The affinity of FXR ligands for the ligand binding domain of FXR was determined using a commercially available human FXR ligand binding assay (LanthaScreen, Thermofisher Cat #PV4833). […] Binding of FXR ligands to the FXR ligand binding domain promotes binding of the fluorescein-labelled SRC2-2 peptide. This causes a FRET signal between the terbium-labelled anti-GST antibody and the fluorescein-labelled SRC peptide which are both bound to the FXR ligand binding domain.
Test compounds are dissolved in DMSO and a 3-fold serial dilution series is generated, then further diluted into assay buffer. The compounds are mixed with 5 nM GST-tagged FXR ligand binding domain, 5 nM Tb-labelled anti-GST antibody and 500 nM fluorcscein-labelled SRC2-2 peptide in a pH 7.4 buffer. The reaction is incubated at room temperature for 1 hour, then the FRET signal is measured as the ratio of the 520 nm/495 nm emission following excitation at 340 nm. The change in FRET signal is plotted against the test article concentration and fit to a 3-parameter logistical equation.

[4] = FXR ligand binding assay, extent of activation relative to GW4064

SMILES	Emax [2]	EC50 [2]	Emax [3]	FXR pEC50 ([3]; FXR ligand binding assay)	other results
CC(C)c1onc(-c2c(Cl)cccc2Cl)c1COc1ccc(/C=C/c2cccc(C(=O)O)c2)c(Cl)c1 [GW4064]					EC50 [1]: 316 nM; Activity, % [1]: 100 ± 0%
O=C(O)c1ccc(N2[C@@H]3CC[C@H]2C[C@@H](OC(=O)c2c(-c4c(Cl)cccc4OC(F)F)noc2C2CC2)C3)c(F)c1 [Compound I-43, 4-[(1R,3R,5S)-3-{3-[2-chloro-6-(difluoromethoxy)phenyl]-5-cyclopropyl-1,2-oxazole-4-carbonyloxy}-8-azabicyclo[3.2.1]octan-8-yl]-3-fluorobenzoic Acid]	108%	39.8 nM	72%		EC50 ([3]; FXR ligand binding assay): 50.1 nM
O=C(O[C@H]1C[C@H]2CC[C@@H](C1)N2c1ccc2c(C(=O)O)noc2c1)c1c(-c2c(Cl)cccc2Cl)noc1C1CC1 [Compound I-29, 6-[(1R,3R,5S)-3-[5-cyclopropyl-3-(2,6-dichlorophenyl)-1,2-oxazole-4-carbonyloxy]-8-azabicyclo[3.2.1]octan-8-yl]-1,2-benzoxazole-3-carboxylic Acid]	124%	251 nM	98%		EC50 ([3]; FXR ligand binding assay): 316 nM
Cn1c(N2[C@@H]3CC[C@H]2C[C@@H](OC(=O)c2c(-c4c(Cl)cccc4Cl)noc2C2CC2)C3)nc2c(F)cc(C(=O)O)cc21 [Compound I-31, 2-[(1R,3R,5S)-3-[5-cyclopropyl-3-(2,6-dichlorophenyl)-1,2-oxazole-4-carbonyloxy]-8-azabicyclo[3.2.1]octan-8-yl]-4-fluoro-1-methyl-1H-1,3-benzodiazole-6-carboxylic Acid]				6.6	FXR pEC50 [2]: 6.4; % Efficacy [2]: 100%; % Efficacy [3]: 63%
O=C(O)c1ccc(N2[C@@H]3CC[C@H]2C[C@@H](OC(=O)c2c(-c4c(Cl)cccc4Cl)noc2C2CC2)C3)c(Cl)c1 [Compound I-36, 3-chloro-4-[(1R,3R,5S)-3-[5-cyclopropyl-3-(2,6-dichlorophenyl)-1,2-oxazole-4-carbonyloxy]-8-azabicyclo[3.2.1]octan-8-yl]benzoic acid]	99%	158 nM	106%	7.3	
CC(C)S(=O)(=O)NC(=O)c1ccc(N2[C@@H]3CC[C@H]2C[C@@H](OC(=O)c2c(-c4c(Cl)cccc4Cl)noc2C2CC2)C3)cc1 [Compound I-47, (1R,3R,5S)-8-{4-[(propane-2-sulfonyl)carbamoyl]phenyl}-8-azabicyclo[3.2.1]octan-3-yl 5-cyclopropyl-3-(2,6-dichlorophenyl)-1,2-oxazole-4-carboxylate]				7.8	FXR pEC50 [2]: 8.5; % Efficacy [2]: 124%; % Efficacy [3, 4]: 168%
Cc1cc(C(=O)O)cc2sc(N3[C@@H]4CC[C@H]3C[C@@H](OC(=O)c3c(-c5c(Cl)cccc5Cl)noc3C3(F)CC3)C4)nc12 [Compound I-59, 2-[(1R,3R,5S)-3-[3-(2,6-dichlorophenyl)-5-(1-fluorocyclopropyl)-1,2-oxazole-4-carbonyloxy]-8-azabicyclo[3.2.1]octan-8-yl]-4-methyl-1,3-benzothiazole-6-carboxylic Acid]	105%	39.8 nM	95%		
COc1cc(N2[C@@H]3CC[C@H]2C[C@@H](OC(=O)c2c(-c4c(Cl)cccc4Cl)noc2C2CC2)C3)ccc1C(=O)O [Compound I-39, 4-[(1R,3R,5S)-3-[5-cyclopropyl-3-(2,6-dichlorophenyl)-1,2-oxazole-4-carbonyloxy]-8-azabicyclo[3.2.1]octan-8-yl]-2-methoxybenzoic acid]	114%	100 nM	64%	6.8	
O=C(O)c1ccc(N2[C@@H]3CC[C@H]2C[C@@H](OC(=O)c2c(-c4c(Cl)cccc4Cl)noc2C2CC2)C3)c(C(F)(F)F)c1 [Compound I-38, 4-[(1R,3R,5S)-3-[5-cyclopropyl-3-(2,6-dichlorophenyl)-1,2-oxazole-4-carbonyloxy]-8-azabicyclo[3.2.1]octan-8-yl]-3-(trifluoromethyl)benzoic acid]	112%	79.4 nM	80%	6.6	
CC[C@H]1[C@@H](O)[C@@H]2[C@H](CC[C@]3(C)[C@@H]([C@H](C)CCC(=O)O)CC[C@@H]23)[C@@]2(C)CC[C@@H](O)C[C@@H]12 [OCA, Obeticholic acid]					EC50 [1]: 501 nM; Activity, % [1]: 82.6 ± 19%
Cc1onc(-c2c(Cl)cccc2Cl)c1C(=O)O[C@H]1C[C@H]2CC[C@@H](C1)N2c1nc2c(F)cc(C(=O)O)cc2s1 [Compound I-23, 2-[(1R,3S,5S)-3-[3-(2,6-dichlorophenyl)-5-methyl-1,2-oxazole-4-carbonyloxy]-8-azabicyclo[3.2.1]octan-8-yl]-4-fluoro-1,3-benzothiazole-6-carboxylic Acid]				7.1	FXR pEC50 [2]: 6.8; % Efficacy [2]: 100%; % Efficacy [3, 4]: 37%
O=C(O)c1ccc(N2[C@@H]3CC[C@H]2C[C@@H](OC(=O)c2c(-c4c(Cl)cccc4Cl)noc2C2CC2)C3)c(F)c1 [Compound I-35, 4-[(1R,3R,5S)-3-[5-Cyclopropyl-3-(2,6-dichlorophenyl)-1,2-oxazole-4-carbonyloxy]-8-azabicyclo[3.2.1]octan-8-yl]-3-fluorobenzoic Acid]	116%	31.6 nM	92%		
COc1cc2nc(N3[C@@H]4CC[C@H]3C[C@@H](OC(=O)c3c(-c5c(Cl)cccc5Cl)noc3C3CC3)C4)sc2cc1C(=O)O [Compound I-7, 2-[(1R,3R,5S)-3-[5-cyclopropyl-3-(2,6-dichlorophenyl)-1,2-oxazole-4-carbonyloxy]-8-azabicyclo[3.2.1]octan-8-yl]-5-methoxy-1,3-benzothiazole-6-carboxylic Acid]	110%	7.94 nM	125%		
O=C(O)c1cc(F)cc(N2[C@@H]3CC[C@H]2C[C@@H](OC(=O)c2c(-c4c(Cl)cccc4Cl)noc2C2CC2)C3)c1 [Compound I-42, 3-[(1R,3R,5S)-3-[5-cyclopropyl-3-(2,6-dichlorophenyl)-1,2-oxazole-4-carbonyloxy]-8-azabicyclo[3.2.1]octan-8-yl]-5-fluorobenzoic acid]	85%	79.4 nM	38%	8	
CS(=O)(=O)NC(=O)c1cc(F)c2nc(N3[C@@H]4CC[C@H]3C[C@@H](OC(=O)c3c(-c5c(Cl)cccc5Cl)noc3C3CC3)C4)sc2c1 [Compound I-6, (1R,3R,5S)-8-[4-fluoro-6-(methanesulfonylcarbamoyl)-1,3-benzothiazol-2-yl]-8-azabicyclo[3.2.1]octan-3-yl 5-cyclopropyl-3-(2,6-dichlorophenyl)-1,2-oxazole-4-carboxylate]	109%	15.8 nM	110%		
O=C(O)c1cc(F)c2nc(N3[C@@H]4CC[C@H]3C[C@@H](OC(=O)c3c(-c5ccccc5)noc3C3CC3)C4)sc2c1 [Compound I-13, 2-[(1R,3R,5S)-3-(5-Cyclopropyl-3-phenyl-1,2-oxazole-4-carbonyloxy)-8-azabicyclo[3.2.1]octan-8-yl]-4-fluoro-1,3-benzothiazole-6-carboxylic Acid]				6.7	FXR pEC50 [2]: 6; % Efficacy [2]: 93%; % Efficacy [3, 4]: 40%
O=C(O)c1ncc(N2[C@@H]3CC[C@H]2C[C@@H](OC(=O)c2c(-c4c(Cl)cccc4Cl)noc2C2CC2)C3)cn1 [Compound I-54, 5-[(1R,3R,5S)-3-[5-Cyclopropyl-3-(2,6-dichlorophenyl)-1,2-oxazole-4-carbonyloxy]-8-azabicyclo[3.2.1]octan-8-yl]pyrimidine-2-carboxylic Acid]	115%	> 20000 nM	46%		
CS(=O)(=O)NC(=O)c1ccc(N2[C@@H]3CC[C@H]2C[C@@H](OC(=O)c2c(-c4c(Cl)cccc4Cl)noc2C2CC2)C3)c(F)c1 [Compound I-51, (1R,3R,5S)-8-[2-fluoro-4-(methanesulfonylcarbamoyl)phenyl]-8-azabicyclo[3.2.1]octan-3-yl 5-cyclopropyl-3-(2,6-dichlorophenyl)-1,2-oxazole-4-carboxylate]	105%	5.01 nM	139%		
